ChEMBL document CHEMBL4354830, “Discovery of Benzo[cd]indol-2(1H)-ones and Pyrrolo[4,3,2-de]quinolin-2(1H)-ones as Bromodomain and Extra-Terminal Domain (BET) Inhibitors with Selectivity for the First Bromodomain with Potential High Efficiency against Acute Gouty Arthritis” (J Med Chem, 2019)
The source made the active and inactive calls. The calls are words filed in the database; no cut-off is given here.

Tests used:
Rattus norvegicus [1] = experiment: In vivo inhibition of MSU-induced ASC activation in synovial tissue of Sprague-Dawley rat model of acute gout arthritis at 1 mg/kg, ia administered 1 hr before MSU challenge and measured upto 24 hrs by immunofluorescence based confocal microscopy analysis; format: functional, organism-based
Homo sapiens [2] = species on record: Homo sapiens; experiment: Selectivity index, ratio of IC50 for BRD3 BD2 (unknown origin) […] (unknown origin) by AlphaScreen assay
[3] = molecular target: T1, Bromodomain-containing protein 4 (Homo sapiens, UniProt O60885); experiment: Inhibition of BRD4 BD1 in human THP1 cells assessed as inhibition of MSU-induced pyroptosis by measuring caspase+/PI+ cells at 1 uM incubated for 1 hr followed by MSU treatment and measured after 12 hrs by PI/caspase 1 double staining based flow cytometric analysis (reference value: 12.7 %); format: cell-based; parameters: scale not given: the % may be the effect or the level left
Rattus norvegicus [4] = experiment: In vivo inhibition of MSU-induced NLRP3 inflammasome in synovial tissue of Sprague-Dawley rat model of acute gout arthritis at 1 mg/kg, ia administered 1 hr before MSU challenge and measured upto 24 hrs by immunofluorescence based confocal microscopy analysis; format: functional, organism-based
[5] = molecular target: T2, Bromodomain-containing protein 2 (Homo sapiens, UniProt P25440); experiment: Displacement of tetra-acetylated histone H4 peptide (1-21) from BRD2 BD2 (unknown origin) incubated for 30 mins followed by further incubation with tetra-acetylated histone H4 peptide (1-21) for 30 mins by Alphascreen assay
T2 sequence (P25440 whole entry): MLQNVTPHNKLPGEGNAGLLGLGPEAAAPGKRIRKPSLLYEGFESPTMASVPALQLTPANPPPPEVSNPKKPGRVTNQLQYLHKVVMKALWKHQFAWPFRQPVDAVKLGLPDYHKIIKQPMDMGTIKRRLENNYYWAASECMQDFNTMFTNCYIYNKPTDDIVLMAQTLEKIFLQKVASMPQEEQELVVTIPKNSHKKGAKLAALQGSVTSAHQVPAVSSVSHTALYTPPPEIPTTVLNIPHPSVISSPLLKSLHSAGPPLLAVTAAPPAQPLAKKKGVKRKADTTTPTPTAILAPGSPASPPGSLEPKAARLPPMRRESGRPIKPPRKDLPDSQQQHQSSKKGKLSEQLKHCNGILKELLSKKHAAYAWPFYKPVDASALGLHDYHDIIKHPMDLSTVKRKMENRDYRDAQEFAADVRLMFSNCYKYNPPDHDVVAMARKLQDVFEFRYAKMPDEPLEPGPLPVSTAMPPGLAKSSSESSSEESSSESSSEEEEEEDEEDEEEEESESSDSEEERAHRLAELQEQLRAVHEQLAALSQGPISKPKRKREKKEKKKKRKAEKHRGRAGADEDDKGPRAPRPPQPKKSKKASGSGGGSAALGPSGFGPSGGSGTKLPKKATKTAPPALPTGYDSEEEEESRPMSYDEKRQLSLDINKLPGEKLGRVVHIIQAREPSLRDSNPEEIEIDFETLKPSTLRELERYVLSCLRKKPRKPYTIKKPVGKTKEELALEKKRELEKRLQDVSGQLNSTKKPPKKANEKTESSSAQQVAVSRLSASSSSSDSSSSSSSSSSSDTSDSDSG

[6] = Metabolic stability in monkey liver microsomes assessed as half life measured upto 60 mins by LC/MS-MS analysis; format: ADME, Macaca mulatta, Microsome; conditions: rhesus monkey
Rattus norvegicus [7] = experiment: (§1) In vivo inhibition of MSU-induced pyroptosis in Sprague-Dawley rat model of acute gout arthritis assessed as caspase-/PI+ macrophage cells in synovial tissue at 1 mg/kg, ia administered 1 hr before MSU challenge and measured upto 24 hrs by PI staining based flow cytometric analysis (reference value: 8.71 %); format: functional; parameters: scale not given: the % may be the effect or the level left
Rattus norvegicus [8] = experiment: Anti-arthritic activity in Sprague-Dawley rat model of acute gout arthritis assessed as reduction in MSU-induced neutrophil infiltration in synovial tissue at 1 mg/kg, ia administered 1 hr before MSU challenge and measured upto 24 hrs hematoxylin and eosin staining based histopathological analysis; format: functional, organism-based
Rattus norvegicus [9] = experiment: In vivo inhibition of MSU-induced NLRP3 inflammasome in synovial tissue of Sprague-Dawley rat model of acute gout arthritis at 1 mg/kg, ia administered 1 hr before MSU challenge and measured upto 24 hrs by Western blot analysis; format: functional, organism-based
[10] = molecular target: T1, Bromodomain-containing protein 4; experiment: Inhibition of BRD4 BD1 in human THP1 cells assessed as inhibition of MSU-induced NF-kappaB P65 phosphorylation at 1 uM incubated for 1 hr followed by MSU treatment and measured after 12 hrs by Western blot analysis; format: cell-based
[11] = molecular target: T1, Bromodomain-containing protein 4; experiment: Inhibition of BRD4 BD1 in human THP1 cells assessed as inhibition of MSU-induced NLRP3 inflammasome at 1 uM incubated for 1 hr followed by MSU treatment and measured after 12 hrs by Western blot analysis; format: cell-based
[12] = molecular target: T1, Bromodomain-containing protein 4; experiment: Inhibition of BRD4 BD1 in human THP1 cells assessed as inhibition of MSU-induced pyroptosis by measuring caspase+/PI- cells at 1 uM incubated for 1 hr followed by MSU treatment and measured after 12 hrs by PI/caspase 1 double staining based flow cytometric analysis (reference value: 4.2 %); format: cell-based; parameters: scale not given: the % may be the effect or the level left
Homo sapiens [13] = species on record: Homo sapiens; experiment: Selectivity index, ratio of IC50 for BRD2 BD2 (unknown origin) to IC50 for recombinant human N-terminal His-tagged BRD4 BD1 (44 to 170 residues) expressed in Escherichia coli by AlphaScreen assay
[14] = molecular target: T2, Bromodomain-containing protein 2; experiment: Displacement of tetra-acetylated histone H4 peptide (1-21) from BRD2 BD1 (unknown origin) incubated for 30 mins followed by further incubation with tetra-acetylated histone H4 peptide (1-21) for 30 mins by Alphascreen assay
[15] = molecular target: T1, Bromodomain-containing protein 4; experiment: Inhibition of BRD4 BD1 in human THP1 cells assessed as inhibition of MSU-induced ASC activation at 1 uM incubated for 1 hr followed by MSU treatment and measured after 12 hrs by immunofluorescence based confocal microscopy analysis; format: cell-based
Rattus norvegicus [16] = experiment: In vivo inhibition of MSU-induced NLRP3 and ASC co-localization in synovial tissue of Sprague-Dawley rat model of acute gout arthritis at 1 mg/kg, ia administered 1 hr before MSU challenge and measured upto 24 hrs by immunofluorescence based confocal microscopy analysis; format: functional, organism-based
Rattus norvegicus [17] = experiment: Anti-arthritic activity in Sprague-Dawley rat model of acute gout arthritis assessed as reduction in MSU-induced joint swelling at 1 mg/kg, ia administered 1 hr before MSU challenge and measured upto 24 hrs; format: functional, organism-based
Rattus norvegicus [18] = experiment: as §1, with “caspase+/PI-” for “caspase-/PI+”, “21.9” for “8.71”; format: functional; parameters: scale not given: the % may be the effect or the level left
[19] = molecular target: Bromodomain-containing protein 3 (Homo sapiens, UniProt Q15059); experiment: Displacement of tetra-acetylated histone H4 peptide (1-21) from BRD3 BD1 (unknown origin) incubated for 30 mins followed by further incubation with tetra-acetylated histone H4 peptide (1-21) for 30 mins by Alphascreen assay
Sequence of Bromodomain-containing protein 3 (Q15059 whole entry): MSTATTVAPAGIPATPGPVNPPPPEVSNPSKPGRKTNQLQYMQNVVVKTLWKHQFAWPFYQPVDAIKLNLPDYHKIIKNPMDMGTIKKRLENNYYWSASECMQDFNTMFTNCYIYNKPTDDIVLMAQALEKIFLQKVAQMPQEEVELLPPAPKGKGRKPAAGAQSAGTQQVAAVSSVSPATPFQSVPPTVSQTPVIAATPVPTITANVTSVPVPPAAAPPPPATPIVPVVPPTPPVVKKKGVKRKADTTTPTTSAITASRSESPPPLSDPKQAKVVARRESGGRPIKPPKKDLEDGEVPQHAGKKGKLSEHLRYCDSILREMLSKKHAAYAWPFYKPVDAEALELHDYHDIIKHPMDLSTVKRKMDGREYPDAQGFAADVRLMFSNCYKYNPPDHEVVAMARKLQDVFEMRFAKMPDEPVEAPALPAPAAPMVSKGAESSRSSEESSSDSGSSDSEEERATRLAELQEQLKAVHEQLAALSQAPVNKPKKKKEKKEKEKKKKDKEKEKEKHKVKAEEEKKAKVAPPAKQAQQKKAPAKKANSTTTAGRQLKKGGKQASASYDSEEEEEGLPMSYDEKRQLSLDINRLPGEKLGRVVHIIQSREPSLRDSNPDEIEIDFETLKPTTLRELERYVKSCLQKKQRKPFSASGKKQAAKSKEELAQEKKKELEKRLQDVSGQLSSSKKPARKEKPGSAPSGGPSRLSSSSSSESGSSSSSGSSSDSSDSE

[20] = molecular target: T1, Bromodomain-containing protein 4; experiment: Binding affinity to immobilized DNA-tagged human BRD4 BD2 by BROMOscan analysis
[21] = molecular target: T1, Bromodomain-containing protein 4; experiment: Displacement of tetra-acetylated histone H4 peptide (1-21) from recombinant human N-terminal His-tagged BRD4 BD1 (44 to 170 residues) expressed in Escherichia coli incubated for 30 mins followed by further incubation with tetra-acetylated histone H4 peptide (1-21) for 30 mins by Alphascreen assay
Rattus norvegicus [22] = experiment: as §1, with “caspase-/PI-” for “caspase-/PI+”, “63.6” for “8.71”; format: functional; parameters: scale not given: the % may be the effect or the level left
[23] = Metabolic stability in dog liver microsomes assessed as intrinsic clearance measured per mg protein upto 60 mins by LC/MS-MS analysis; format: ADME, Canis lupus familiaris, Microsome; conditions: read-out: CLH
[24] = Metabolic stability in rat liver microsomes assessed as half life measured upto 60 mins by LC/MS-MS analysis; format: ADME, Microsome
Homo sapiens [25] = species on record: Homo sapiens; experiment: Selectivity index, ratio of IC50 for BRPF1b (unknown origin) to IC50 for recombinant human N-terminal His-tagged BRD4 BD1 (44 to 170 residues) expressed in Escherichia coli by AlphaScreen assay
[26] = Permeability of compound at 10 uM by PAMPA assay; format: ADME; conditions: read-out: permeability
[27] = Metabolic stability in rat assessed as intrinsic hepatic clearance by LC/MS-MS analysis; format: ADME; conditions: read-out: CLH
[28] = molecular target: T1, Bromodomain-containing protein 4; experiment: Inhibition of BRD4 BD1 in human THP1 cells assessed as inhibition of MSU-induced co-localization of NLRP3 and ASC at 1 uM incubated for 1 hr followed by MSU treatment and measured after 12 hrs by immunofluorescence based confocal microscopy analysis; format: cell-based
[29] = molecular target: T1, Bromodomain-containing protein 4; experiment: Inhibition of BRD4 BD1 in human THP1 cells assessed as inhibition of MSU-induced pyroptosis by measuring caspase-/PI- cells at 1 uM incubated for 1 hr followed by MSU treatment and measured after 12 hrs by PI/caspase 1 double staining based flow cytometric analysis (reference value: 76.2 %); format: cell-based; parameters: scale not given: the % may be the effect or the level left
[30] = Metabolic stability in monkey assessed as intrinsic hepatic clearance by LC/MS-MS analysis; format: ADME, Macaca mulatta; conditions: rhesus monkey; read-out: CLH
[31] = molecular target: T1, Bromodomain-containing protein 4; experiment: Inhibition of MSU-induced BRD4 expression in human THP1 cells at 1 uM incubated for 1 hr followed by MSU treatment and measured after 12 hrs by Western blot analysis; format: cell-based

- Ratio IC50 (Homo sapiens [2]): 202
- Activity [3]: 4.4%
- IC50 [5]: 21.4 µM
- half-life [6]: 10.3 min
- inhibition [10]: Active
- inhibition [11]: Active
- Activity [12]: 4.1%
- Ratio IC50 (Homo sapiens [13]): 244
- IC50 [14]: 8.95 µM
- inhibition [15]: Active
- IC50 [19]: 0.246 µM
- Kd [20]: > 25 µM
- IC50 [21]: 0.0877 µM
- microsomal CLint [23]: 133 µL/min/mg
- half-life [24]: 9.45 min
- Ratio IC50 (Homo sapiens [25]): 6.5
- Papp at 10 µM [26]: 0.117 ×10⁻⁶ cm/s
- CLint scaled [27]: 264 mL/min/kg
- inhibition [28]: Active
- Activity [29]: 86.6%
- CLint scaled [30]: 194 mL/min/kg
- inhibition [31]: Active
SMILES: COc1ccccc1S(=O)(=O)Nc1ccc2c3c(cc(-n4cnc(C)c4)nc13)C(=O)N2C
- inhibition (Rattus norvegicus [1]): Active
- inhibition (Rattus norvegicus [4]): Active
- Activity (Rattus norvegicus [7]): 15.4%
- inhibition (Rattus norvegicus [8]): Active
- inhibition (Rattus norvegicus [9]): Active
- inhibition (Rattus norvegicus [16]): Active
- inhibition (Rattus norvegicus [17]): Active
- Activity (Rattus norvegicus [18]): 0.43%
- Activity (Rattus norvegicus [22]): 83.1%
